Measurements: patent publication US7230001B1, “Arylalkane, arylalkene and aryl azaalkane, medicaments containing said compounds and method for the production thereof” (Boehringer Ingelheim Pharma GmbH & Co. KG, priority 1999, dated 2007)

Structure (SMILES) | melting point
Nc1c(Br)cc(C(=O)CCC(=O)N2CCC(N3Cc4cccnc4NC3=O)CC2)cc1Br [compound 13, 3-{1-[4-(4-amino-3,5-dibromophenyl)-1,4-dioxobutyl]-4-piperidinyl}-3,4-dihydro-2(1H)-pyrido[2,3-d]pyrimidinone] | > 225 °C
CC(=O)Nc1ccc(C(=O)CCC(=O)N2CCC(N3Cc4ccccc4NC3=O)CC2)cc1Br [compound 18, 3-{1-[4-(4-acetylamino-3-bromophenyl)-1,4-dioxobutyl]-4-piperidinyl}-3,4-dihydro-2(1H)-quinazolinone] | 243 °C
CC(=O)Nc1ccc(C(=O)CCC(=O)N2CCC(n3c(=O)[nH]c4ccccc43)CC2)cc1Br [compound 19, 1-{1-[4-(4-acetylamino-3-bromophenyl)-1,4-dioxobutyl]-4-piperidinyl}-1,3-dihydro-2(2H)-benzimidazolone] | 128 °C
CC(=O)Nc1ccc(C(=O)CCC(=O)N2CCC(n3cc(-c4ccccc4)[nH]c3=O)CC2)cc1Br [compound 21, 1-{1-[4-(4-acetylamino-3-bromophenyl)-1,4-dioxobutyl]-4-piperidinyl}-1,3-dihydro-4-phenyl-2(2H)-imidazolone] | 243 °C
Nc1ccc(C(=O)CCC(=O)N2CCC(n3cc(-c4ccccc4)[nH]c3=O)CC2)cc1Br [compound 24, 1-{1-[4-(4-amino-3-bromophenyl)-1,4-dioxobutyl]-4-piperidinyl}-1,3-dihydro-4-phenyl-2(2H)-imidazolone] | 267 °C
COc1ccc(C(=O)CCC(=O)N2CCC(N3Cc4ccccc4NC3=O)CC2)cc1 [compound 25, 3,4-dihydro-3-{1-[1,4-dioxo-4-(4-methoxyphenyl)butyl]-4-piperidinyl}-2(1H)-quinazolinone] | 171 to 172 °C
O=C(CCC(=O)N1CCC(N2Cc3ccccc3NC2=O)CC1)c1ccc(Cl)cc1 [compound 26, 3,4-dihydro-3-{1-[4-(4-chlorophenyl)-1,4-dioxobutyl]-4-piperidinyl}-2(1H)-quinazolinone] | 237 to 238 °C
CNc1ccc(C(=O)CCC(=O)N2CCC(N3Cc4ccccc4NC3=O)CC2)cc1[N+](=O)[O-] [compound 27, 3,4-dihydro-3-{1-[1,4-dioxo-4-(4-methylamino-3-nitrophenyl)butyl]-4-piperidinyl}-2(1H)-quinazolinone] | 258 to 259 °C (dec.)
O=C(CCC(=O)N1CCC(N2Cc3ccccc3NC2=O)CC1)c1ccc(Cl)c([N+](=O)[O-])c1 [compound 28, 3,4-dihydro-3-{1-[4-(4-chloro-3-nitrophenyl)-1,4-dioxo-butyl]-4-piperidinyl}-2(1H)-quinazolinone] | 207 to 209 °C
COc1cc2c(cc1OC)NC(=O)N(C1CCN(C(=O)CCC(=O)c3cc(Br)c(N)c(Br)c3)CC1)C2 [compound 29, 3-{1-[4-(4-amino-3,5-dibromophenyl)-1,4-dioxobutyl]-4-piperidinyl}-3,4-dihydro-6,7-dimethoxy-2(1H)-quinazolinone] | 256 to 258 °C
Nc1c(Br)cc(C(=O)CCC(=O)N2CCC(N3Cc4ccncc4NC3=O)CC2)cc1Br [compound 42, 3-{1-[4-(4-amino-3,5-dibromophenyl)-1,4-dioxobutyl]-4-piperidinyl}-3,4-dihydro-2(1H)-pyrido[3,4-d]pyrimidinone] | > 250 °C
Nc1c(Br)cc(C(=O)CCC(=O)N2CCC(N3Cc4cnccc4NC3=O)CC2)cc1Br [compound 43, 3-{1-[4-(4-amino-3,5-dibromophenyl)-1,4-dioxobutyl]-4-piperidinyl}-3,4-dihydro-2(1H)-pyrido[4,3-d]pyrimidinone] | > 250 °C
Nc1c(Br)cc(C(=O)CCC(=O)N2CCN(c3cc4ccccc4[nH]c3=O)CC2)cc1Br [compound 59, 3-{1-[4-(4-amino-3,5-dibromophenyl)-1,4-dioxobutyl]-4-piperazinyl}-2(1H)-quinolinone] | 272 to 274 °C (dec.)
Nc1c(Br)cc(C(=O)CCC(=O)N2CCN(c3nc4ccccc4[nH]c3=O)CC2)cc1Br [compound 61, 3-{1-[4-(4-amino-3,5-dibromophenyl)-1,4-dioxobutyl]-4-piperazinyl}-2(1H)-quinoxalinone] | 246 to 252 °C
O=C(CCC(=O)N1CCC(N2Cc3ccccc3NC2=O)CC1)c1ccc(-c2ccccc2)cc1 [compound 62, 3-{1-[4-(4-biphenylyl)-1,4-dioxobutyl]-4-piperidinyl}-3,4-dihydro-2(1H)-quinazolinone] | 200 °C
Nc1c(Br)cc(CCCC(=O)N2CCC(n3cc(-c4ccccc4)[nH]c3=O)CC2)cc1Br [compound 64, 1-{1-[4-(4-amino-3,5-dibromophenyl)-1-oxobutyl]-4-piperidinyl}-1,3-dihydro-4-phenyl-2(2H)-imidazolone] | 162.5 to 163.5 °C
O=C(CCC(=O)N1CCC(N2Cc3ccccc3NC2=O)CC1)c1cc(Br)cc(Br)c1 [compound 65, 3-{1-[4-(3,5-dibromophenyl)-1,4-dioxobutyl]-4-piperidinyl}-3,4-dihydro-2(1H)-quinazolinone] | 212 to 214 °C
COc1ccccc1C(=O)CCC(=O)N1CCC(N2Cc3ccccc3NC2=O)CC1 [compound 66, 3-{1-[1,4-dioxo-4-(2-methoxyphenyl)butyl]-4-piperidinyl}-3,4-dihydro-2(1H)-quinazolinone] | 174 to 175 °C
O=C(CCC(=O)N1CCC(N2Cc3ccccc3NC2=O)CC1)c1ccc(F)cc1 [compound 67, 3-{1-[1,4-dioxo-4-(4-fluorophenyl)butyl]-4-piperidinyl}-3,4-dihydro-2(1H)-quinazolinone] | 164 to 166 °C
N#Cc1ccc(C(=O)CCC(=O)N2CCC(N3Cc4ccccc4NC3=O)CC2)cc1 [compound 72, 3-{1-[4-(4-cyanophenyl)-1,4-dioxobutyl]-4-piperidinyl}-3,4-dihydro-2(1H)-quinazolinone] | 191 to 193 °C
